Experiments:
Assay type in all cases: cell-based
[1] = system: Human embryonic stem cells; assay: hESC 19-day 5-step differentiation with varying DAPT concentrations, real-time quantitative PCR; details: DAPT 0, 1, 3 or 10 μM for 2 days in step 4
Procedure: Human embryonic stem cells were differentiated for 19 days via a 5-step protocol to achieve islet hormone-expressing cells. The first step comprised 5 days differentiation in activin A (100 ng/mL) to robustly produce DE (D'Amour, K., et al., Nature Biotechnology 23, 1534-1541, (2005)). Step 2 comprised 2 days differentiation in RPMI with 2% FBS containing FGF10 (50 ng/mL) and KAAD-cyclopamine (0.5 μM). Step 3 comprised 4 days differentiation in CMRL with B27 supplement (1:100) containing FGF10 (50 ng/mL), KAAD-cyclopamine (0.2 μM), and retinoic acid (1 μM). The fourth step comprised 2 days treatment with CMRL with B27 supplement (1:100) containing exendin 4 (40 ng/mL) and with varying concentrations of the gamma secretase inhibitor DAPT (0 μM, 1 μM, 3 μM, or 10 μM). The last step comprised 6 days differentiation in DMEM with B27 supplement (1:100) containing nicotinamide (10 mM), exendin 4 (40 ng/mL), and insulin-like growth factor (IGF)-1 (50 ng/mL). Duplicate samples were taken from each plate and gene expression was analyzed by real-time quantitative PCR.

[2] = system: Human embryonic stem cells; assay: hESC 16-day 4-step or 5-step differentiation time course, real-time quantitative PCR
Procedure: Human embryonic stem cells were differentiated for 16 days via either a 4-step or 5-step protocol to achieve islet hormone-expressing cells. The first step comprised 3 days differentiation in activin A (100 ng/mL) to robustly produce DE (D'Amour, K., et al., Nature Biotechnology 23, 1534-1541, (2005)). Step 2 comprised 3 days differentiation in RPMI with 2% FBS containing FGF10 (50 ng/mL) and KAAD-cyclopamine (0.2 μM). In the 4-step protocol, step 3 comprised 4 days differentiation in CMRL with B27 supplement (1:100) containing FGF10 (50 ng/mL), KAAD-cyclopamine (0.2 μM), retinoic acid (2 μM), and DAPT (1 μM). In the 5-step protocol, this 4 day period was broken into two separate treatments in the same base media. For 2 days the media contained FGF10 (50 ng/mL), KAAD-cyclopamine (0.2 μM), and retinoic acid (2 μM). During the subsequent 2 days, the FGF10 was removed and the gamma-secretase inhibitor DAPT (1 μM) was added. The last step of both protocols comprised 6 days differentiation in DMEM with B27 supplement (1:100) containing nicotinamide (10 mM), exendin 4 (40 ng/mL), hepatocyte growth factor (HGF 25 ng/mL), and insulin-like growth factor (IGF)-1 (50 ng/mL). Duplicate samples were taken from each plate at multiple time points and gene expression was analyzed by real-time quantitative PCR.

[3] = system: Human embryonic stem cell lines; assay: hESC differentiation by 5-step 17-day protocol (treatments i-iv), gene expression by real-time quantitative PCR; details: KAAD-cyclopamine maintained in the presence of retinoic acid during step 3
Procedure: Human embryonic stem cell lines were differentiated for 17 days via a 5-step protocol to produce pancreatic islet hormone-expressing cells. […] Step 2 comprised 3 days differentiation in RPMI with 2% FBS containing one of the following: (a) 100 ng/mL activin A (treatment i), (b) no exogenous growth factors (treatment ii), or (c) 50 ng/mL FGF10 and 0.5 μM KAAD-cyclopamine (treatments iii and iv). Step 3 comprised 3 days differentiation in CMRL with B27 supplement (1:100) containing either (a) 2 μM retinoic acid (treatments i-iii) or (b) 2 μM retinoic acid and 0.5 μM KAAD-cyclopamine (treatment iv). Steps 4 and 5 were the same for all conditions (treatments i-iv). Step 4 comprised 2 days differentiation in CMRL with B27 supplement (1:100) containing 1 μM DAPT and 40 ng/mL exendin 4. Step 5 comprised 5 days differentiation in CMRL with B27 supplement (1:100) containing 40 ng/mL exendin 4. Duplicate samples were taken from each plate at multiple time points and gene expression was analyzed by real-time quantitative PCR.

[4] = system: Human embryonic stem cells; assay: hESC 17-day 4-step differentiation with or without retinoic acid, real-time quantitative PCR; details: retinoic acid about 0.1-5 μM for at least about 1 day
Procedure: Human embryonic stem cells were differentiated for 17 days via a 4-step protocol to achieve islet hormone-expressing cells. The first step comprised 5 days differentiation in activin A (100 ng/mL) to robustly produce DE (D'Amour, K., et al., Nature Biotechnology 23, 1534-1541, (2005)). Step 2 comprised 2 days differentiation in RPMI with 2% FBS containing FGF10 (50 ng/mL) and KAAD-cyclopamine (1 μM) followed by 2 more days that also contained DAPT (1 μM). Step 3 comprised 5 days differentiation in CMRL with B27 supplement (1:100) containing FGF10 (50 ng/mL), KAAD-cyclopamine (1 μM), DAPT (1 μM) and either with or without the addition of retinoic acid (1 μM). The fourth step comprised 4 days differentiation in CMRL with B27 supplement (1:100) containing nicotinamide (10 mM), exendin 4 (50 ng/mL), hepatocyte growth factor (HGF 25 ng/mL), and insulin-like growth factor (IGF)-1 (50 ng/mL). Duplicate samples were taken from each plate at multiple time points and gene expression was analyzed by real-time quantitative PCR.

Human ESCs [5] = assay: hESC differentiation to insulin-expressing cells using noggin without exogenous retinoids, real-time PCR
Procedure: Human ESCs were differentiated to definitive endoderm cells via treatment with activin A (100 ng/ml) and Wnt3a (25 ng/ml) in RPMI+0% FBS for the first day and then for 2 more days with activin A (100 ng/ml) alone in RPMI+0.2% v/v FBS. Definitive endoderm was differentiated to foregut endoderm by treatment with KGF (50 ng/ml) and KAAD-cyclopamine (0.25 μM) for 3 days in RPMI+2% v/v FBS. Differentiation then proceeded in DMEM+1% v/v B27 supplement containing KGF (50 ng/ml) and KAAD-cyclopamine (0.25 μM) for one day followed by 5 additional days of the same with or without the addition of noggin (100 ng/ml). The B27 supplement used was either with (B27+) or without (B27-) vitamin A. On days 13, 14 and 15 of differentiation, the KGF was removed but the KAAD-cyclopamine (0.25 μM) and noggin (when used) remained in the culture medium. The differentiation medium for days 16-19 consisted of CMRL+1% v/v B27 (with or without vitamin A as in previous conditions) with no additional factors. Cultures were sampled in duplicate on days 3, 6, 9, 12, 15 and 19 of differentiation and analyzed for expression of pancreatic markers using real-time PCR.

[6] = system: Human embryonic stem cells; assay: PDX1 protein and mRNA expression under different media conditions; details: insulin about 0.2-20 μg/ml or insulin-like growth factor about 10-500 ng/ml
Procedure: Human embryonic stem cells were differentiated in RPMI medium containing activin A (100 ng/ml) for 5 days. The FBS concentrations changed from 0% for the first 24 hours followed by 0.2% for the next 24 hrs and then to 2% for the remaining 3 days. During the next 4 days, the plates were subjected to different media conditions. They were either incubated in i) RPMI with 2% FBS and activin A (100 ng/ml), ii) RPMI with 2% FBS, activin A (25 ng/ml) and retinoic acid, iii) CMRL with 0.2% FBS and B27 supplement (1:100), activin A (25 ng/ml) and retinoic acid, and iv) CMRL with 0.2% FBS and B27 supplement (1:100), activin A (25 ng/ml), retinoic acid and exendin (40 ng/ml). The concentration of retinoic acid changed from 2 μM for 48 hours followed by 1 μM for 24 hours to 0.2 μM for the last 24 hours. The cells were harvested for protein and mRNA analyses on days 7, 8 and 9.
Without sufficient insulin signaling, PDX1 mRNA was expressed without significant translation into PDX1 protein (FIGS. 4A-4B). The base medium can be RPMI, CMRL, OptiMEM or DMEM with or without 2% FBS. If the base medium is supplemented with sufficient insulin/IGF and FGF10, PDX1 protein will be expressed.

[7] = system: Human embryonic stem cells; assay: hESC 21-day 4-step differentiation with three step-1 conditions, real-time quantitative PCR; details: activin A 100 ng/ml, or follistatin 50 ng/ml and noggin 100 ng/ml
Procedure: Human embryonic stem cells were differentiated for 21 days via a 4-step protocol to achieve islet hormone-expressing cells. Three different conditions were used for the first step after which all plates received the identical treatment. The first step comprised 5 days differentiation under one of the following conditions: i) activin A (100 ng/ml) to robustly produce DE (D'Amour, K., et al., Nature Biotechnology 23, 1534-1541, (2005)), ii) 2% FBS with no exogenous growth factors, thereby producing mesoderm and extraembryonic endoderm, or iii) follistatin (50 ng/ml) and noggin (100 ng/ml), thereby producing neural ectoderm. Step 2 comprised 3 days differentiation in RPMI with 2% FBS containing FGF10 (50 ng/mL) and KAAD-cyclopamine (1 μM). Step 3 comprised 5 days differentiation in CMRL with B27 supplement (1:100) containing FGF10 (50 ng/mL), KAAD-cyclopamine (1 μM), retinoic acid (2 μM), and DAPT (1 μM). The fourth step consisted of 8 days differentiation in DMEM with B27 supplement (1:100) containing nicotinamide (10 mM), exendin 4 (40 ng/mL), hepatocyte growth factor (HGF-25 ng/mL), and insulin-like growth factor (IGF)-1 (50 ng/mL). Duplicate samples were taken from each plate at multiple time points and gene expression was analyzed by real-time quantitative PCR.

Human ESCs [8] = assay: hESC differentiation using combination of noggin and retinoic acid, QPCR
Procedure: Human ESCs were differentiated to definitive endoderm via treatment with activin A (100 ng/ml) and Wnt3a (25 ng/ml) in RPMI+0% FBS for the first day and then for 2 more days with activin A (100 ng/ml) alone in RPMI+0.2% v/v FBS. Definitive endoderm was differentiated to foregut endoderm by treatment with KGF (50 ng/ml) and KAAD-cyclopamine (0.25 μM) for 3 days in RPMI+2% v/v FBS. Differentiation then proceeded for 3 days in DMEM+1% v/v B27 supplement containing KAAD-cyclopamine (0.25 μM) and all-trans retinoic acid (0.1 μM or 2 μM) with or without the addition of noggin (0, 30 or 100 ng/ml). This was followed by a 2 day treatment period with the gamma-secretase inhibitor DAPT (1 μM) provided in DMEM+1% v/v B27 and subsequently the cells were cultured in CMRL+1% v/v B27 with no additional growth factors.

[9] = noggin 100 ng/ml, B27 with or without vitamin A

C[C@H](NC(=O)Cc1cc(F)cc(F)c1)C(=O)N[C@H](C(=O)OC(C)(C)C)c1ccccc1 [DAPT, N—[N-(3,5-difluorophenacetyl)-L-alanyl]-S-phenylglycine t-butyl ester]
Effect on expression of pancreatic hormones and transcription factors after 19 days [1]: very little to no insulin, glucagon, somatostatin or principal pancreatic transcription factors were produced in the absence of DAPT
Effect on NGN3 and PAX4 expression ([2]; 2-4 day application of DAPT in terminal days of RA addition or after RA withdrawal): transient induction of NGN3 and PAX4 expression

CC1=C2C[C@H]3[C@@H](CC=C4CC(=O)CC[C@@]43C)[C@@H]2CC[C@]12O[C@@H]1C[C@H](C)CN(CCNC(=O)CCCCCNC(=O)CCc3ccccc3)[C@H]1[C@H]2C [KAAD-cyclopamine]
Increase of performance of endocrine differentiation relative to treatment iii [3]: 2 fold

CC1=C(/C=C/C(C)=C/C=C/C(C)=C/C(=O)O)C(C)(C)CCC1 [retinoic acid, all-trans retinoic acid]
Effect on HNF6 and PDX1 expression ([2]; retinoic acid 2 μM in step 3): robustly increased expression of HNF6 and PDX1
Effect on insulin expression [4]: insulin was not expressed unless retinoic acid was applied

CC1=C(/C=C/C(C)=C/C=C/C(C)=C/CO)C(C)(C)CCC1 [vitamin A, retinol, reference compound]
Magnitude of pancreatic hormone expression (Human ESCs [5]; B27 supplement with versus without vitamin A): enhanced by the presence of vitamin A

insulin-like growth factor
Effect on PDX1 protein expression [6]: promotes the expression of PDX1 protein

insulin: insulin as medium supplement
Effect on PDX1 protein expression [6]: promotes the expression of PDX1 protein

B1: activin A: growth factor of the TGFβ superfamily (protein, UniProt P08476 311-426, looked up)
Inhibin beta A chain: GLECDGKVNICCKKQFFVSFKDIGWNDWIIAPSGYHANYCEGECPSHIAGTSGSSLSFHSTVINHYRMRGHSPFANLKSCCVPTKLRPMSMLYYDDGQNIIKKDIQNMIVEECGCS
Lineage marker expression at 5 days of differentiation (step 1) [7]: robust production of definitive endoderm

B2: noggin: recombinant human Noggin (protein, UniProt Q13253 28-232, looked up)
Noggin: QHYLHIRPAPSDNLPLVDLIEHPDPIFDPKEKDLNETLLRSLLGGHYDPGFMATSPPEDRPGGGGGAAGGAEDLAELDQLLRQRPSGAMPSEIKGLEFSEGLAQGKKQRLSKKLRRKLQMWLWSQTFCPVLYAWNDLGSRFWPRYVKVGSCFSKRSCSVPEGMVCKPSKSVHLTVLRWRCQRRGGQRCGWIPIQYPIISECKCSC
Expression levels of PDX1 at days 9 or 11 (Human ESCs [8]; noggin 0, 30 or 100 ng/ml with retinoic acid 0.1 μM or 2 μM): very little effect
Expression of NGN3 at day 9 (Human ESCs [8]; noggin added to low dose RA (0.1 μM)): dramatically enhanced
Expression of pancreatic hormones INS, GCG, SST and GHRL (Human ESCs [5]; noggin 100 ng/ml): also dependent on the presence of noggin
Induction of PDX1 gene expression (Human ESCs [5]; [9]): not dependent on either noggin treatment
NGN3 expression induced at day 12 (pancreatic endocrine differentiation) (Human ESCs [5]; [9]): highly dependent on the presence of noggin

Source: patent US9980986B2, “Methods of producing pancreatic hormones” (ViaCyte, Inc., priority 2006, dated 2018)
